The target of one test is T1, hGPR119 (Homo sapiens, UniProt Q8TDV5).
T1 construct: expressed in transfected cells; host or cells: CHO
T1 sequence (Q8TDV5 1-335): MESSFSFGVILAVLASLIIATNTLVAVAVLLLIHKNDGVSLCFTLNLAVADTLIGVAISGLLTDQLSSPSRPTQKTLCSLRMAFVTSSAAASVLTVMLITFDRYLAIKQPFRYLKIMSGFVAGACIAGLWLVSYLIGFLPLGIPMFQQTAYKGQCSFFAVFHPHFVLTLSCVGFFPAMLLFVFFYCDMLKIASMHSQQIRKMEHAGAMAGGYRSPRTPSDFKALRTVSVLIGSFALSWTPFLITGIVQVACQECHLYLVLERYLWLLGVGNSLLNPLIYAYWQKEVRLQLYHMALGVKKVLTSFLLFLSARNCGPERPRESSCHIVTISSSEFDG
In words: In vitro cyclic AMP assay (Cisbio dynamic 2 HTRF kit) in CHO-hGPR119 cells. The settings on record: 1 h, cAMP, compound at 1 μM, 60 min, read-out: Induction (% induction at 1 μM). It counts as cell-based. As for the experimental part:
cAMP measurements were done using Cisbio dynamic 2 HTRF kit according to the manufacturer's protocol. Briefly, CHO-hGPR119 cells were plated at a cell density of 5000 cells/well/5 μl into a white small volume 384 well plate. The final concentrations of IBMX and DMSO used were 1 mM and 0.5% respectively. Cells were treated with various concentrations of the test compound for 60 min at room temperature. Cells were lysed by buffer containing Anti-cAMP antibody and d2-cAMP reagents and incubated for 1 hour at room temperature. HTRF was measured at 337 nm excitation and emission wavelengths of 665 nm and 620 nm on a microplate reader (Flurostar, BMG Labtech). Graphpad prism software was utilized for EC50 determinations.
A general note: TR-FRET usually uses a lanthanide donor and a delayed reading to cut background.
For the molecule `CCc1cnc(N2CCN(c3nc4ccc(-c5ccc(S(C)(=O)=O)cc5)nc4s3)CC2)nc1` [Compound 1008, 2-(4-(5-ethylpyrimidin-2-yl)piperazin-1-yl)-5-(4-(methylsulfonyl)phenyl)thiazolo[5,4-b]pyridine], the activation at 1 µM came out at 3%.

Take `CNS(=O)(=O)c1ccc(-c2ccc3nc(N4CCC(c5nc(C(C)C)no5)CC4)sc3n2)cc1` [Compound 1072, 4-(2-(4-(3-isopropyl-1,2,4-oxadiazol-5-yl)piperidin-1-yl)thiazolo[5,4-b]pyridin-5-yl)-N-methylbenzenesulfonamide]: the activation at 1 µM amounted to 17%.

For `CCc1cnc(N2CCC(C(C)Oc3nc4ccc(-c5ccncc5)nc4s3)CC2)nc1` (stereo not shown) [Compound 1149, 2-(1-(1-(5-ethylpyrimidin-2-yl)piperidin-4-yl)ethoxy)-5-(pyridin-4-yl)thiazolo[5,4-b]pyridine], the activation at 1 µM was determined as 64%.

For the molecule `C=Cc1ccc(N2CCC(C(C)Oc3nc4ccc(-c5ccc(S(C)(=O)=O)cc5)nc4s3)CC2)nc1` (stereo not shown) [Compound 1088, 5-(4-(methylsulfonyl)phenyl)-2-(1-(1-(5-vinylpyridin-2-yl)piperidin-4-yl)ethoxy)thiazolo[5,4-b]pyridine], the activation at 1 µM turned out to be 60%.

Take `CCc1ccc(N2CCC(C(C)Oc3nc4ccc(-c5ccc(S(C)(=O)=O)cc5)nc4s3)CC2)nc1` (stereo not shown) [Compound 1087, 2-(1-(1-(5-ethylpyridin-2-yl)piperidine-4-yl)ethoxy)-5-(4-(methylsulfonyl)phenyl)thiazolo[5,4-b]pyridine]: the activation at 1 µM is 74%.

`CC(=O)N(C)c1ncc(-c2ccc3nc(OC(C)C4CCN(c5nc(C(C)C)no5)CC4)sc3n2)cn1` (stereo not shown) [Compound 1139, N-(5-(2-(1-(1-(3-isopropyl-1,2,4-oxadiazol-5-yl)piperidin-4-yl)ethoxy)thiazolo[5,4-b]pyridin-5-yl)pyrimidin-2-yl)-N-methylacetamide]: the activation at 1 µM came out at 65%.

In the case of `CC(C)c1noc(N2CCC([C@H](C)Oc3nc4ccc(-c5ccc(S(C)(=O)=O)cc5)nc4s3)CC2)n1` [Compound 1031, (S)-3-isopropyl-5-(4-(1-((5-(4-(methylsulfonyl)phenyl)thiazolo[5,4-b]pyridin-2-yl)oxy)ethyl)piperidin-1-yl)-1,2,4-oxadiazole], the activation at 1 µM was found to be 76%.

Consider `CC(Oc1nc2ccc(-c3ccc(S(C)(=O)=O)cc3)nc2s1)C1CCN(S(=O)(=O)C2CC2)CC1` (stereo not shown) [Compound 1109, 2-(1-(1-(cyclopropylsulfonyl)piperidin-4-yl)ethoxy)-5-(4-(methylsulfonyl)phenyl)thiazolo[5,4-b]pyridine], for which the activation at 1 µM was determined as 0%.

Regarding `CC(C)c1cnc(N2CCC(C(C)Oc3nc4ccc(-c5ccc(S(C)(=O)=O)cc5)nc4s3)CC2)nc1` (stereo not shown) [Compound 1113, 2-(1-(1-(5-isopropylpyrimidin-2-yl)piperidin-4-yl)ethoxy)-5-(4-(methylsulfonyl)phenyl)thiazolo[5,4-b]pyridine], the activation at 1 µM was 57%.

As for `Cc1ccc(S(=O)(=O)N2CC=C(c3nc4ccc(-c5ccc(S(C)(=O)=O)cc5)nc4s3)CC2)cc1` [Compound 1026, 5-(4-(methylsulfonyl)phenyl)-2-(1-tosyl-1,2,3,6-tetrahydropyridin-4-yl)thiazolo[5,4-b]pyridine], the activation at 1 µM was determined as 5%.

In the case of `CC(C)c1noc(N2CCC([C@H](C)Oc3nc4ncc(-c5ccc(S(C)(=O)=O)nc5)nc4s3)CC2)n1` [Compound 1114, (S)-3-isopropyl-5-(4-(1-((6-(6-(methyslulfonyl)pyridin-3-yl)thiazolo[4,5-b]pyrazin-2-yl)oxy)ethyl)piperidin-1-yl)-1,2,4-oxadiazole], the activation at 1 µM amounted to 75%.

Take `Cc1cc(-c2ccc(S(C)(=O)=O)cc2)nc2sc(OC(C)C3CCN(c4nc(C(C)C)no4)CC3)nc12` (stereo not shown) [Compound 1037, 3-isopropyl-5-(4-(1-((7-methyl-5-(4-(methylsulfonyl)phenyl)thiazolo[5,4-b]pyridin-2-yl)oxy)ethyl)piperidin-1-yl)-1,2,4-oxadiazole]: the activation at 1 µM was determined as 18%.

For `COCCNC(=O)c1ccc(-c2ccc3nc(OC(C)C4CCN(c5nc(C(C)C)no5)CC4)sc3n2)cc1` (stereo not shown) [Compound 1050, 4-(2-(1-(1-(3-isopropyl-1,2,4-oxadiazol-5-yl)piperidin-4-yl)ethoxy)thiaozlo[5,4-b]pyridin-5-yl)-N-(2-methoxyethyl)benzamide], the activation at 1 µM was 16%.

With `COCc1cnc(N2CCC(C(C)Oc3nc4ccc(-c5ccc(S(C)(=O)=O)nc5)nc4s3)CC2)nc1` (stereo not shown) [Compound 1163, 2-(1-(1-(5-(methoxymethyl)pyrimidin-2-yl)piperidin-4-yl)ethoxy)-5-(6-(methylsulfonyl)pyridin-3-yl)thiazolo[5,4-b]pyridine], the activation at 1 µM came out at 63%.

Regarding `CC(Oc1nc2ccc(-c3ccc(S(C)(=O)=O)cc3)nc2s1)C1CCN(C(=O)OC2(C)CC2)CC1` (stereo not shown) [Compound 1117, 1-methylcyclopropyl 4-(1-((5-(4-(methylsulfonyl)phenyl)thiazolo[5,4-b]pyridin-2-yl)oxy)ethyl)piperidine-1-carboxylate], the activation at 1 µM came to 2%.

For the molecule `CCc1noc(N2CCC([C@H](C)Oc3nc4ccc(-c5ccc(S(C)(=O)=O)nc5)nc4s3)CC2)n1` [Compound 1160, 2-((S)-1-(1-(3-ethyl-1,2,4-oxadiazol-5-yl)piperidin-4-yl)ethoxy)-5-(6-(methylsulfonyl)pyridin-3-yl)thiazolo[5,4-b]pyridine], the activation at 1 µM was 76%.

Take `CC(C)c1noc(N2CCC(C(C)Oc3nc4ccc(-c5ccc(S(C)(=O)=O)cn5)nc4s3)CC2)n1` (stereo not shown) [Compound 1161, 2-(1-(1-(3-isopropyl-1,2,4-oxadiazol-5-yl)piperidin-4-yl)ethoxy)-5-(5-(methylsulfonyl)pyridin-2-yl)thiazolo[5,4-b]pyridine]: the activation at 1 µM is 69%.

In the case of `CCCc1cnc(N2CCC(C(C)Oc3nc4ccc(-c5ccc(S(C)(=O)=O)cc5)nc4s3)CC2)nc1` (stereo not shown) [Compound 1053, 5-(4-(methyslulfonyl)phenyl)-2-(1-(1-(5-propylpyrimidin-2-yl)piperidin-4-yl)ethoxy)thiazolo[5,4-b]pyridine], the activation at 1 µM is 73%.

As to `CC(C)c1nsc(N2CCC(C(C)Oc3nc4ccc(-c5ccc(S(C)(=O)=O)cc5)nc4s3)CC2)n1` (stereo not shown) [Compound 1107, 2-(1-(1-(3-isopropyl-1,2,4-thiadiazol-5-yl)piperidin-4-yl)ethoxy)-5-(4-(methylsulfonyl)phenyl)thiazolo[5,4-b]pyridine], the activation at 1 µM is 12%.

For the molecule `CC(C)c1nc(N2CCC(C(C)Oc3nc4ccc(-c5ccc(S(C)(=O)=O)cc5)nc4s3)CC2)no1` (stereo not shown) [Compound 1058, 5-isopropyl-3-(4-(1-((5-(4-(methylsulfonyl)phenyl)thiazolo[5,4-b]pyridin-2-yl)oxy)ethyl)piperidin-1-yl)-1,2,4-oxadiazole], the activation at 1 µM was determined as 48%.

In the case of `CCc1cnc(N2CCC([C@H](C)Oc3nc4ccc(-c5ccc(C(F)(F)F)nc5)nc4s3)CC2)nc1` [Compound 1154, (S)-2-(1-(1-(5-ethylpyrimidin-2-yl)piperidin-4-yl)ethoxy)-5-(6-(trifluoromethyl)pyridin-3-yl)thiazolo[5,4-b]pyridine], the activation at 1 µM was 65%.

Regarding `CN(C)C(=O)N1CCC(c2nc3ccc(-c4ccc(S(C)(=O)=O)cc4)nc3s2)CC1` [Compound 1028, N,N-dimethyl-4-(5-(4-(methylsulfonyl)phenyl)thiazolo[5,4-b]pyridin-2-yl)piperidine-1-carboxamide], the activation at 1 µM worked out at 2%.

For `CC(C)c1noc(N2CCC(C(C)Oc3nc4ccc(-c5ccc(C#N)cc5)nc4s3)CC2)n1` (stereo not shown) [Compound 1065, 4-(2-(1-(1-(3-isopropyl-1,2,4-oxadiazol-5-yl)piperidin-4-yl)ethoxy)thiazolo[5,4-b]pyridin-5-yl)benzonitrile], the activation at 1 µM is 60%.

In the case of `CC(C)c1noc(C2CCC(C(C)Oc3nc4ccc(-c5ccc(S(C)(=O)=O)cc5)nc4s3)CC2)n1` (stereo not shown) [Compound 1105, 3-isopropyl-5-(4-(1-((5-(4-(methylsulfonyl)phenyl)thiazolo[5,4-b]pyridin-2-yl)oxy)ethyl)cyclohexyl)-1,2,4-oxadiazole], the activation at 1 µM is 13%.

`CC(C)c1noc(N2CCC(C(C)Oc3nc4ccc(-c5ccc(C(=O)N(C)C6CC6)cc5)nc4s3)CC2)n1` (stereo not shown) [Compound 1052, N-cyclopropyl-4-(2-(1-(1-(3-isopropyl-1,2,4-oxadiazol-5-yl)piperidin-4-yl)ethoxy)thiazolo[5,4-b]pyridin-5-yl)-N-methylbenzamide]: the activation at 1 µM was found to be 13%.

For the molecule `CC(C)c1noc(N2CCC(C(C)Oc3nc4cnc(-c5ccc(S(C)(=O)=O)nc5)nc4s3)CC2)n1` (stereo not shown) [Compound 1162, 2-(1-(1-(3-isopropyl-1,2,4-oxadiazol-5-yl)piperidin-4-yl)ethoxy)-5-(6-(methylsulfonyl)pyridin-3-yl)thiazolo[5,4-d]pyrimidine], the activation at 1 µM was determined as 62%.

The same test, now with this note: cAMP.
Molecule `CC(C)c1noc(N2CCC([C@H](C)Oc3nc4ccc(-c5ccc(S(C)(=O)=O)cc5)nc4s3)CC2)n1` [Compound 1031, (S)-3-isopropyl-5-(4-(1-((5-(4-(methylsulfonyl)phenyl)thiazolo[5,4-b]pyridin-2-yl)oxy)ethyl)piperidin-1-yl)-1,2,4-oxadiazole] displayed an EC50 of 50 to 100 nM.

On to `CC(C)c1noc(N2CCC([C@H](C)Oc3nc4ncc(-c5ccc(S(C)(=O)=O)nc5)nc4s3)CC2)n1` [Compound 1114, (S)-3-isopropyl-5-(4-(1-((6-(6-(methyslulfonyl)pyridin-3-yl)thiazolo[4,5-b]pyrazin-2-yl)oxy)ethyl)piperidin-1-yl)-1,2,4-oxadiazole], for which the half-maximal effective concentration (EC50) was 50 to 100 nM.

Molecule `CCc1noc(N2CCC([C@H](C)Oc3nc4ccc(-c5ccc(S(C)(=O)=O)nc5)nc4s3)CC2)n1` [Compound 1160, 2-((S)-1-(1-(3-ethyl-1,2,4-oxadiazol-5-yl)piperidin-4-yl)ethoxy)-5-(6-(methylsulfonyl)pyridin-3-yl)thiazolo[5,4-b]pyridine] came in with an EC50 of 25 to 50 nM.

With `CCCc1cnc(N2CCC(C(C)Oc3nc4ccc(-c5ccc(S(C)(=O)=O)cc5)nc4s3)CC2)nc1` (stereo not shown) [Compound 1053, 5-(4-(methyslulfonyl)phenyl)-2-(1-(1-(5-propylpyrimidin-2-yl)piperidin-4-yl)ethoxy)thiazolo[5,4-b]pyridine], the EC50 lay in the range of 50 to 100 nM.

`CCc1cnc(N2CCC([C@H](C)Oc3nc4ccc(-c5ccc(C(F)(F)F)nc5)nc4s3)CC2)nc1` [Compound 1154, (S)-2-(1-(1-(5-ethylpyrimidin-2-yl)piperidin-4-yl)ethoxy)-5-(6-(trifluoromethyl)pyridin-3-yl)thiazolo[5,4-b]pyridine] returned an EC50 of 25 to 50 nM.

One may read the EC50 as the midpoint of the concentration-response curve. A high value points to a less potent agent.

(Values after patent US10526345B2, “Compounds as GPR119 agonists” (Mankind Pharma Ltd., priority 2016, dated 2020).)
